Assay results: patent publication US8772275B2, “Mediators of hedgehog signaling pathways, compositions and uses related thereto” (Curis, Inc., priority 2001, dated 2014)

Key:
Format in all cases: cell-based
Hedgehog pathway [1] = test: Gli-Luc reporter assay in human embryonic palatal mesenchyme cells, OCT-SHH stimulated; details: human-based Gli-Luc assay, OCT-SHH 1 μg/ml
Protocol: (§1) Compounds to be tested are dissolved in DMSO to a concentration of 10 mM, and stored at −20° C. To activate the Hedgehog pathway in the assay cells, an octylated (lipid-modified) form of the N-terminal fragment of the Sonic Hedgehog protein (OCT-SHH) is used. This N-terminal SHH fragment is produced bacterially. See, for example, Taylor F R, et al., Biochemistry 2001, 40, 4359-71.
(§2) Compounds may be tested in the “Gli-Luc” assay below, using the cell line 10T1/2(s12), wherein the cells contain a Hedgehog-responsive reporter construct utilizing Luciferase as the reporter gene. In this way, Hedgehog pathway signaling activity can be measured via the Gli-Luc response.
(§3) 10t1/2(s12) cells are plated in a 96-well micro-titer plate (MTP) at 20,000 cells/well in full medium [DMEM with […]]. Then plates are placed in the incubator for incubation overnight (O/N), at 37° C. and 5% CO2. After 24 h, the medium is replaced with Luciferase-assay medium (DMEM with 0.5% FBS). Compounds are thawed and diluted in assay medium at 3:1000 (about 300-fold) resulting in a starting concentration of about 0.0003 μM to 30 μM.
(§4) Subsequently, 150 μl each sample is added to the first wells (in triplicate). The MTP samples are then diluted at 3-fold dilutions to a total of seven wells, ultimately resulting in a regiment of seven dilutions in triplicate, for each compound. Next, the protein ligand OCT-SHH is diluted in Luciferase-assay medium and added to each well at a final concentration of […] Plates are then returned to the incubator for further incubation O/N, at 37° C. and 5% CO2. After about 24 h, plates are removed from the incubator and the medium is aspirated/discarded. Wells are washed once with assay buffer [PBS+1 mM Mg^2+ and 1 mM Ca^2+]. Then 50 μl of assay buffer is added to each well. The Luciferase assay reagent is prepared as described by the vendor (LucLite kit from Packard), and 50 μl is added to each well. Plates are incubated at room temperature (RT) for about 30 minutes after which the signals are read, again at RT, on a Topcount (Packard).
Similar assays were performed using human cell lines (specifically, human embryonic palatal mesenchyme cells, modified with the Gli-Luc construct as described above) in a growth medium of MEM/Sodium Pyruvate w/10% MS, and an assay medium of MEM/Sodium Pyruvate w/0.5% FBS. OCT-SHH was added to reach a final concentration of 1 μg/ml.

Hedgehog pathway [2] = test: Gli-Luc reporter assay in 10T1/2(s12) cells, OCT-SHH stimulated; details: compounds E-V: not from the human-based assay; Gli-Luc assay in 10T1/2(s12) cells
Protocol: as §1, §2, §3, §4

[3] = system: hedgehog signaling pathway; test: Colon cancer cells co-cultured with 10T(S12) reporter cells, luciferase activity; details: 20,000 colon cancer cells mixed with 10,000 10T(S12) cells, 72 hrs incubation
Protocol: 20,000 colon cancer cells were mixed with 10,000 10T(S12) cells (described above), and the mixture was added to each well in a 96-well plate. A subject compound or control vehicle was added to the culture on the next day. After 72 hrs of incubation, the cells were lysed for measuring the luciferase activity. […] FIG. 35 depicts the comparative inhibition of hedgehog-induced activation in S12 cells for the antibodies 1E6 and 5E1 and compound A, and the comparative inhibition of endogenous hedgehog activity in colon cancer cells for these compositions.

IC50 (Hedgehog pathway [2]) | SMILES | IC50 (Hedgehog pathway [1]) | inhibition of luciferase activity compared to vehicle [3]
– | COc1cc(OC)cc(C(=O)Nc2ccc(Cl)c(-c3nc4c(C)cccc4[nH]3)c2)c1 [Z] | < 50 nM | –
– | O=C(Nc1ccc(Cl)c(-c2nc3ccccc3[nH]2)c1)c1ccc2c(c1)OCCO2 [C] | < 500 nM | –
< 5 µM | Cc1ccccc1OCC(=O)Nc1ccc(Cl)c(-c2nc3ccccc3[nH]2)c1 [E] | – | –
– | COc1ccc(C(=O)Nc2ccc(Cl)c(-c3nc4cc(C)c(C)cc4[nH]3)c2)cc1Cl [Y] | < 50 nM | –
– | O=C(Nc1ccc(Cl)c(-c2nc3ccccc3[nH]2)c1)c1cccnc1 [B] | < 50 nM | –
< 5 µM | COc1cc(C(=O)Nc2ccc(Cl)c(-c3nc4ccccc4[nH]3)c2)cc(OC)c1OC [L] | – | –
< 5 µM | Cc1ccc(C(=O)Nc2ccc(Cl)c(-c3nc4ccccc4[nH]3)c2)cc1[N+](=O)[O-] [J] | – | –
– | Cc1ccc2nc(-c3cc(NC(=O)c4ccc5c(c4)OCCO5)ccc3Cl)[nH]c2c1C [X] | < 50 nM | –
– | O=C(Nc1ccc(Cl)c(-c2nc3cc(C(F)(F)F)ccc3[nH]2)c1)c1ccc2c(c1)OCCO2 [W] | < 10 nM | –
– | COc1cc(OC)cc(C(=O)Nc2ccc(Cl)c(-c3nc4ccccc4[nH]3)c2)c1 [Compound A] | < 50 nM | able to inhibit the lucferase activity
